A short description of data set [1]: Antitumor activity against human A549 cells xenografted in BALB/c nude mouse assessed as tumor growth inhibition at 3 mg/kg, ig administered via oral gavage once daily for 9 consecutive days followed by subsequent dosing on days 13 and 14 measured on day 30 relative to control. Type of data set: functional. The note with it: 720 h, read-out: TGI. Background: A xenograft is tissue or cells of one species grown in another, often human tumour cells in immunodeficient mice.

The nature of data set [2]: Cytotoxicity against human A549 cells after 72 hrs by MTT assay. Type of data set: functional, cell-based. The note with it: A549, 72 h. Background: Formazan colour is commonly taken as a measure of viable cells.
Data set [3] in a line: Cytotoxicity against human U87MG cells after 72 hrs by MTT assay. Particulars: U-87 MG. The class given is functional, cell-based, U-87MG ATCC.
A short description of data set [4]: Aqueous solubility of the compound in pH 1 simulated gastric fluid. Type of data set: ADME.
Data set [5] is described as follows: Antitumor activity against human A549 cells xenografted in BALB/c nude mouse assessed as tumor volume at 3 mg/kg, ig administered via oral gavage once daily for 9 consecutive days followed by subsequent dosing on day 13 and 14 measured on day 15 (reference value: 2071.51 +/- 682.84 mm3). The class given is functional.
A short description of data set [6]: Antitumor activity against human A549 cells xenografted in BALB/c nude mouse assessed as tumor volume at 3 mg/kg, ig administered via oral gavage once daily for 9 consecutive days followed by subsequent dosing on day 13 and 14 measured on day 18 (reference value: 3045.91 +/- 854.27 mm3). Type of data set: functional.
Data set [7] relates to Mus musculus. In words: Toxicity in nude BALB/c mouse xenografted with human A549 cells assessed as body weight at 3 mg/kg, ig administered via oral gavage once daily for 9 consecutive days followed by subsequent dosing on day 13 and 14 measured on day 1 (reference value: 24.38 +/- 0.76 g). The note with it: in vivo. The class given is organism-based.
Data set [8] has as its system Mus musculus. As to the kind of experiment: Toxicity in nude BALB/c mouse xenografted with human A549 cells assessed as body weight at 3 mg/kg, ig administered via oral gavage once daily for 9 consecutive days followed by subsequent dosing on day 13 and 14 measured on day 4 (reference value: 24.77 +/- 0.93 g). The class given is organism-based. Particulars: in vivo.

The subject of data set [9] is Mus musculus. In words: Toxicity in nude BALB/c mouse xenografted with human A549 cells assessed as body weight at 3 mg/kg, ig administered via oral gavage once daily for 9 consecutive days followed by subsequent dosing on day 13 and 14 measured on day 8 (reference value: 25.66 +/- 1.04 g). Type of data set: organism-based. Particulars: in vivo.
For data set [10], the system named is Mus musculus. As to the kind of experiment: Toxicity in nude BALB/c mouse xenografted with human A549 cells assessed as body weight at 3 mg/kg, ig administered via oral gavage once daily for 9 consecutive days followed by subsequent dosing on day 13 and 14 measured on day 11 (reference value: 26.11 +/- 1.06 g). The class given is organism-based. The note with it: in vivo.

In data set [11] the test system is Mus musculus. In words: Toxicity in nude BALB/c mouse xenografted with human A549 cells assessed as body weight at 3 mg/kg, ig administered via oral gavage once daily for 9 consecutive days followed by subsequent dosing on day 13 and 14 measured on day 15 (reference value: 27.12 +/- 1.43 g). The class given is organism-based. The note with it: in vivo.
Data set [12] has as its system Mus musculus. As to the kind of experiment: Toxicity in nude BALB/c mouse xenografted with human A549 cells assessed as body weight at 3 mg/kg, ig administered via oral gavage once daily for 9 consecutive days followed by subsequent dosing on day 13 and 14 measured on day 18 (reference value: 27.75 +/- 1.41 g). The class given is organism-based. Particulars: in vivo.

Data set [13] is described as follows: Antitumor activity against human A549 cells xenografted in BALB/c nude mouse assessed as tumor volume at 3 mg/kg, ig administered via oral gavage once daily for 9 consecutive days followed by subsequent dosing on day 13 and 14 measured on day 1 (reference value: 156.87 +/- 22.32 mm3). The class given is functional.
Data set [14] can be described thus: Antitumor activity against human A549 cells xenografted in BALB/c nude mouse assessed as tumor volume at 3 mg/kg, ig administered via oral gavage once daily for 9 consecutive days followed by subsequent dosing on day 13 and 14 measured on day 4 (reference value: 419.55 +/- 104.72 mm3). The class given is functional.
A short description of data set [15]: Antitumor activity against human A549 cells xenografted in BALB/c nude mouse assessed as tumor volume at 3 mg/kg, ig administered via oral gavage once daily for 9 consecutive days followed by subsequent dosing on day 13 and 14 measured on day 8 (reference value: 840.07 +/- 205.19 mm3). The class given is functional.
Data set [16] is described as follows: Antitumor activity against human A549 cells xenografted in BALB/c nude mouse assessed as tumor volume at 3 mg/kg, ig administered via oral gavage once daily for 9 consecutive days followed by subsequent dosing on day 13 and 14 measured on day 11 (reference value: 1327.66 +/- 404.92 mm3). Type of data set: functional.
A short description of data set [17]: cells. Particulars: Homo sapiens, HCT-116, 72 h.
The nature of data set [18]: Antitumor activity against human Bel7404 cells xenografted in BALB/c nude mouse assessed as tumor volume at 50 mg/kg, ig administered via oral gavage once daily for 14 consecutive days measured on day 1 (reference value: 101.62 +/- 26.48 mm3). Type of data set: functional, BEL-7404.
The nature of data set [19]: Antitumor activity against human Bel7404 cells xenografted in BALB/c nude mouse assessed as tumor volume at 50 mg/kg, ig administered via oral gavage once daily for 14 consecutive days measured on day 3 (reference value: 176.17 +/- 57.63 mm3). Type of data set: functional, BEL-7404.
Data set [20] is described as follows: Antitumor activity against human Bel7404 cells xenografted in BALB/c nude mouse assessed as tumor volume at 50 mg/kg, ig administered via oral gavage once daily for 14 consecutive days measured on day 7 (reference value: 284.68 +/- 74.36 mm3). The class given is functional, BEL-7404.
Data set [21] can be described thus: Antitumor activity against human Bel7404 cells xenografted in BALB/c nude mouse assessed as tumor volume at 50 mg/kg, ig administered via oral gavage once daily for 14 consecutive days measured on day 10 (reference value: 425.92 +/- 102.32 mm3). Type of data set: functional, BEL-7404.
Data set [22] can be described thus: Antitumor activity against human Bel7404 cells xenografted in BALB/c nude mouse assessed as tumor volume at 50 mg/kg, ig administered via oral gavage once daily for 14 consecutive days measured on day 14 (reference value: 589.54 +/- 162.22 mm3). Type of data set: functional, BEL-7404.
Data set [23] in a line: Antitumor activity against human Bel7404 cells xenografted in BALB/c nude mouse assessed as tumor volume at 50 mg/kg, ig administered via oral gavage once daily for 14 consecutive days measured on day 17 (reference value: 747.40 +/- 169.75 mm3). Type of data set: functional, BEL-7404.
Data set [24] is described as follows: Antitumor activity against human Bel7404 cells xenografted in BALB/c nude mouse assessed as tumor growth inhibition at 50 mg/kg, ig administered via oral gavage once daily for 14 consecutive days measured on day 29. The class given is functional. Particulars: BEL-7404, po, 696 h, read-out: TGI.

Values after ≈ are worked out from the molar mass of the structure shown.

Consider two compounds from ChEMBL document CHEMBL3865829 (Eur J Med Chem, 2016).

For `COc1ncc(-c2ccc3nccc(-c4ccnnc4)c3c2)cc1NS(=O)(=O)c1ccc(F)cc1F` [OMIPALISIB], the inhibition in vivo at 3 mg/kg in [1] was determined as 65.9%. The IC50 in data set [2] was found to be 140 nM; in [3], 537 nM; in [17], 154 nM. This compound also yielded a solubility in data set [4] of 200 µg/mL (≈ 396 µM). The Activity in data set [5] is on record as 669.43 mm3; in [6], 968.24 mm3; in [7], 24.7 g; in data set [8], 24.55 g; in data set [9] it was 22.98 g; in [10], 21.63 g. In addition, the Activity amounted to 20.92 g in data set [11]; 22.22 g in [12]; 146.36 mm3 in [13]; 261.5 mm3 in [14]; 396.45 mm3 in data set [15]; 520.69 mm3 in data set [16].
With `CNC(=O)c1cc(Oc2ccc(NC(=O)Nc3ccc(Cl)c(C(F)(F)F)c3)cc2)ccn1` [SORAFENIB], the Activity is 97.11 mm3 in [18]; 136.23 mm3 in data set [19]; 206.94 mm3 in [20]; 257.88 mm3 in [21]; 334.93 mm3 in [22]; 413.79 mm3 in data set [23]. For the same compound, in [24], the inhibition in vivo at 50 mg/kg is 43.8%.

As usually defined, the IC50 is the concentration needed to halve the response being measured. A low value points to greater potency. Usually solubility stands for the dissolved amount per volume that the medium holds. Read a low solubility as little dissolved substance.
